By Kd is commonly meant the constant that tells how readily two partners part at equilibrium.

Ten compounds from ChEMBL document CHEMBL3991601, “The target landscape of clinical kinase drugs” (Science, 2017) can be followed below.

The target in experiment [1] is T1, Aurora kinase A (Homo sapiens, UniProt O14965).
T1 sequence (O14965 whole entry): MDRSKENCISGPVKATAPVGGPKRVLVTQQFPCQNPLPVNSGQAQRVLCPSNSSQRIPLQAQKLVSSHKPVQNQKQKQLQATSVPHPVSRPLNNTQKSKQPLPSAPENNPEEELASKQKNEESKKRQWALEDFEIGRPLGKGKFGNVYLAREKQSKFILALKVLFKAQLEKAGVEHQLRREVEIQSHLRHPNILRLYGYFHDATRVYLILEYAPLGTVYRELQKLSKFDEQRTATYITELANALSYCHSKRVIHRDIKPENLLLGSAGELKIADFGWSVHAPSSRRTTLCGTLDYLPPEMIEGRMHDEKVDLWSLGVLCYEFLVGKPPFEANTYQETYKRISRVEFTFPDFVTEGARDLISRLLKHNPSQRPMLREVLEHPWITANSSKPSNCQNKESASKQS

Experiment [2] has as its target Calcium/calmodulin-dependent protein kinase kinase 2 (Homo sapiens, UniProt Q96RR4).
For experiment [3], the target named is Cyclin-dependent kinase 1 (Homo sapiens, UniProt P06493).
The target of experiment [4] is T2, Serine/threonine-protein kinase Chk1 (Homo sapiens, UniProt O14757).
T2 sequence (O14757 whole entry): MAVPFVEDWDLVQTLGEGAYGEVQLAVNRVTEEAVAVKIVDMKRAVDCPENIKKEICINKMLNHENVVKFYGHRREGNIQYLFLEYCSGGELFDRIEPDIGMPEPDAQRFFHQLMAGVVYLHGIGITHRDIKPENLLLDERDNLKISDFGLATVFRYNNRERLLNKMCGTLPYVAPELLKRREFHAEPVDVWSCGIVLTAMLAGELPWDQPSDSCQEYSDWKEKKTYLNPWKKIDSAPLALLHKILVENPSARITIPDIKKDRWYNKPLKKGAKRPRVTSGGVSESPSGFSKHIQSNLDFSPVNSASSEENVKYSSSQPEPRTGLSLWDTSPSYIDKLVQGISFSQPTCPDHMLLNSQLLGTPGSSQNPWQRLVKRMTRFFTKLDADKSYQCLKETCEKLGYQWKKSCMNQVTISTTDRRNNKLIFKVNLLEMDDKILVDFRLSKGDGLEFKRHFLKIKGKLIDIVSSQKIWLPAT

Experiment [5] concerns the target Casein kinase I isoform epsilon (Homo sapiens, UniProt P49674).
Experiment [6] addresses T3, Ephrin type-B receptor 2 (Homo sapiens, UniProt P29323).
T3 sequence (P29323 whole entry): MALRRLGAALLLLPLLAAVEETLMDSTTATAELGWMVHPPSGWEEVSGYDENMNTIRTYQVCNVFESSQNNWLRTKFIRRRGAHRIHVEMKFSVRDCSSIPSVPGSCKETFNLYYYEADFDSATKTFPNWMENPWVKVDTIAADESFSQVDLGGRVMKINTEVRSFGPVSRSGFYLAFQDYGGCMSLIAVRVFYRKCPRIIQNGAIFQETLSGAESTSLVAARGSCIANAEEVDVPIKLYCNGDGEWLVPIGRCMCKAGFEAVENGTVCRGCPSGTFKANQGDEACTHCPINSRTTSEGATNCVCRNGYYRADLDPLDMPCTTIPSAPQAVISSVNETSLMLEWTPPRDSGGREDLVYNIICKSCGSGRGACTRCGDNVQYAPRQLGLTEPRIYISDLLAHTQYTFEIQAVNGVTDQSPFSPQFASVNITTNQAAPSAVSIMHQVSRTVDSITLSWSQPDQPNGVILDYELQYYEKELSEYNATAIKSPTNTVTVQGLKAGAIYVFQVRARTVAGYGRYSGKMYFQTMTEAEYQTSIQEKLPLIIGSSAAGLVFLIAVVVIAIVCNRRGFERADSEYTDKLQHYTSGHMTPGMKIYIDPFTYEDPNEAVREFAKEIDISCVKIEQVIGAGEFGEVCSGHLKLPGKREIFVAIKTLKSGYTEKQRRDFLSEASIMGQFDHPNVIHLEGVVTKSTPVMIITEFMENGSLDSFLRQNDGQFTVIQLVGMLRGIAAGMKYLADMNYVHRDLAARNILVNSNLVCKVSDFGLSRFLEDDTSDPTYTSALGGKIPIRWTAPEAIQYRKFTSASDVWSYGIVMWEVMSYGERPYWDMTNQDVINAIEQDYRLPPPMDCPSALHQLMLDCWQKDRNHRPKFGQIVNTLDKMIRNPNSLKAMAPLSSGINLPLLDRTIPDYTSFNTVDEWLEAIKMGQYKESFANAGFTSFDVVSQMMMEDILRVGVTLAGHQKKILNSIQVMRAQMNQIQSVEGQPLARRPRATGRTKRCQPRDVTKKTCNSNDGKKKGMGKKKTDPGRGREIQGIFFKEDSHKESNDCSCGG

The target in experiment [7] is T4, Serine/threonine-protein kinase ICK (Homo sapiens, UniProt Q9UPZ9).
T4 sequence (Q9UPZ9 whole entry): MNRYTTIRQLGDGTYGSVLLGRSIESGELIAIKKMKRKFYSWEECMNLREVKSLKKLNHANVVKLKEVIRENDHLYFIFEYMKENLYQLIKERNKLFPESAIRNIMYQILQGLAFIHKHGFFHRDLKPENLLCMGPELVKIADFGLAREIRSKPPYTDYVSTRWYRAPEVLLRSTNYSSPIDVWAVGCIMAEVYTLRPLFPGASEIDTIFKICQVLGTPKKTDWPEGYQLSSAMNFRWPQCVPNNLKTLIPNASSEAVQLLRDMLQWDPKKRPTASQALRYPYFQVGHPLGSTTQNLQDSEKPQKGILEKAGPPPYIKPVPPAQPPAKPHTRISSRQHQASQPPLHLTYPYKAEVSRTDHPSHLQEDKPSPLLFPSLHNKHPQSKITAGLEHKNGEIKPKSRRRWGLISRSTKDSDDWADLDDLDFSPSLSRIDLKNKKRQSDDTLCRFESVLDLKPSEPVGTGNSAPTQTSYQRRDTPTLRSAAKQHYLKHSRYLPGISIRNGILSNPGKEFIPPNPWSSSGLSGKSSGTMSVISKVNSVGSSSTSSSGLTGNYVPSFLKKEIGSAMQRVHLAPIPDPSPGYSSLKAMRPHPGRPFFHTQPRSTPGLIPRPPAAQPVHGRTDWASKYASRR

Experiment [8] has as its target Macrophage-stimulating protein receptor (Homo sapiens, UniProt Q04912).
Experiment [9] deals with Serine/threonine-protein kinase PAK 2 (Homo sapiens, UniProt Q13177).
Experiment [10] has as its target Structural maintenance of chromosomes protein 2 (Homo sapiens, UniProt O95347).

Active and inactive are the calls of the source. Cut-off read from the data, not from the text of the source, for most assays here: actives have a measured Kd and inactives only a lower limit.
Note: in the data inactive means no Kd found up to 30 µM.

Sequence of Serine/threonine-protein kinase PAK 2 (Q13177 whole entry): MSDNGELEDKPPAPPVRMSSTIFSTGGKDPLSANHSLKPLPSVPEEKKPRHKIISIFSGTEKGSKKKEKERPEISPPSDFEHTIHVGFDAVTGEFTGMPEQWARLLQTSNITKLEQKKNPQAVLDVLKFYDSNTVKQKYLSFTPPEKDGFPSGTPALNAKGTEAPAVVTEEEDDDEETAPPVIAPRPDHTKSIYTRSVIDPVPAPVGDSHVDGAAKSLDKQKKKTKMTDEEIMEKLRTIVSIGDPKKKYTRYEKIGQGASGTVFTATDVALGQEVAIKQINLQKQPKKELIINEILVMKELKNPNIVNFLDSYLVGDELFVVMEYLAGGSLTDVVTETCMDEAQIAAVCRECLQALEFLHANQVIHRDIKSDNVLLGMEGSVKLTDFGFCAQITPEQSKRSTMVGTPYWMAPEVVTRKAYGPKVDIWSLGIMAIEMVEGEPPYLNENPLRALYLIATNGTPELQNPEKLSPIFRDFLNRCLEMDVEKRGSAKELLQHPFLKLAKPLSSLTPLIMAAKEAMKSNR
Sequence of Structural maintenance of chromosomes protein 2 (O95347 whole entry): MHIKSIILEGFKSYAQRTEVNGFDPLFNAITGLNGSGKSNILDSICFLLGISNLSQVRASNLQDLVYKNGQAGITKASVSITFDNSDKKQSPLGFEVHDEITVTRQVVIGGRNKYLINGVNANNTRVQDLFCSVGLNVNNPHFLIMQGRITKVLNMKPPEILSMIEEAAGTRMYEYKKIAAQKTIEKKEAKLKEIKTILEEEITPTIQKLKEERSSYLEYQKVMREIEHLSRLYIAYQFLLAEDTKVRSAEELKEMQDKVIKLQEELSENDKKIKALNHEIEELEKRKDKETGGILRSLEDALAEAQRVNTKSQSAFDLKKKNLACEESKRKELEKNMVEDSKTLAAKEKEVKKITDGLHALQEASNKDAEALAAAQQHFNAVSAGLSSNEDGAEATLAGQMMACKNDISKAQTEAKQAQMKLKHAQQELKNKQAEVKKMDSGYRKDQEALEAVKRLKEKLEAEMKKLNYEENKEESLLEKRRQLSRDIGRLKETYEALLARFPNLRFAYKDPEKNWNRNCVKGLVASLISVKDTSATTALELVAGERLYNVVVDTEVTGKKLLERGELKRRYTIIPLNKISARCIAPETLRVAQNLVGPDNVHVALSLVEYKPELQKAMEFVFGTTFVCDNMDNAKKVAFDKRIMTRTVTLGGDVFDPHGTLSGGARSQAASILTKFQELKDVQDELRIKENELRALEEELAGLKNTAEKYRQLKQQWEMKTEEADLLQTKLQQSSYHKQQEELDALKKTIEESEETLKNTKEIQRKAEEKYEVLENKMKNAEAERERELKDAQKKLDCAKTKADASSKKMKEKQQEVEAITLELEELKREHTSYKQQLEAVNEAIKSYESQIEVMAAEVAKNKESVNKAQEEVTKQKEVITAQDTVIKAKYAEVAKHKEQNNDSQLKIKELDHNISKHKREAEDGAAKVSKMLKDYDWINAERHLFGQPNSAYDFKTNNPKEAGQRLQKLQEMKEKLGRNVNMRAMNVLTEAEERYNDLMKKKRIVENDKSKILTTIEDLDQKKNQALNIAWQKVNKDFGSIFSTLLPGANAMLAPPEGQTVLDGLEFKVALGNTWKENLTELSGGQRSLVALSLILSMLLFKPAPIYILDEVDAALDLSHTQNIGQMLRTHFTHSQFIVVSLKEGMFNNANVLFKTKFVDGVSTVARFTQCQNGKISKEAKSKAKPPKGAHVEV
Sequence of Cyclin-dependent kinase 1 (P06493 whole entry): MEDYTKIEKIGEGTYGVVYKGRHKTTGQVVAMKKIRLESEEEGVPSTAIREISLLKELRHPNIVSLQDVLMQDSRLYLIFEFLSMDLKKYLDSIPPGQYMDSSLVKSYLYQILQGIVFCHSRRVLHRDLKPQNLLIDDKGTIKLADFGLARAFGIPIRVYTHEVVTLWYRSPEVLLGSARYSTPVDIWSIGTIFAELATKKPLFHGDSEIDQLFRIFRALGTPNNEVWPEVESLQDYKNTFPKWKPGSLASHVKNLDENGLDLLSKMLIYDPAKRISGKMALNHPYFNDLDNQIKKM
Sequence of Calcium/calmodulin-dependent protein kinase kinase 2 (Q96RR4 whole entry): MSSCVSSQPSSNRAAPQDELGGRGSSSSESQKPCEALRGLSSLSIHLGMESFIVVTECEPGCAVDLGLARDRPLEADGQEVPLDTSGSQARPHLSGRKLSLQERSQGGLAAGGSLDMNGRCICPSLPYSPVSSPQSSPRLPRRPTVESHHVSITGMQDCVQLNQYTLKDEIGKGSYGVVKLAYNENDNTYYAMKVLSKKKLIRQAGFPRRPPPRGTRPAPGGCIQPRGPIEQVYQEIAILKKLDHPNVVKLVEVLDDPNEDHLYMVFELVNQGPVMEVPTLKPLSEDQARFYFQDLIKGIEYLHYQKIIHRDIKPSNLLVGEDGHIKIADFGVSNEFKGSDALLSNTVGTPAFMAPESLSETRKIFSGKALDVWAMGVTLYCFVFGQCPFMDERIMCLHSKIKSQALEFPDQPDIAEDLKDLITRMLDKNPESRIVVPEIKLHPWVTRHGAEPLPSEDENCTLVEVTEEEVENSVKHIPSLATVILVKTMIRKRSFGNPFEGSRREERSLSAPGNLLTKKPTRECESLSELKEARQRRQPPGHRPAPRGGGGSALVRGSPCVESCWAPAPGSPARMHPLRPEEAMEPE
Sequence of Casein kinase I isoform epsilon (P49674 whole entry, canonical isoform): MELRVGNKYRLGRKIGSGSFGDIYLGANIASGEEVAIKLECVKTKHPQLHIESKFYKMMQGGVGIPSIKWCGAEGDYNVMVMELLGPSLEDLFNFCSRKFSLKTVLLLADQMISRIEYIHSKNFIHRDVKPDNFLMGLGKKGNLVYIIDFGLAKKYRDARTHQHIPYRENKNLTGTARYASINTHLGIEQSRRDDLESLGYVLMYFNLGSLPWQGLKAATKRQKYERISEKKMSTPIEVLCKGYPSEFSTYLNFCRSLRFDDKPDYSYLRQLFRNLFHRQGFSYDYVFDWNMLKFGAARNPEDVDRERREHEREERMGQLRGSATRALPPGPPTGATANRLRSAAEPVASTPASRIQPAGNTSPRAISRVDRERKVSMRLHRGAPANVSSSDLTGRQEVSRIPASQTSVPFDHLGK
Sequence of Macrophage-stimulating protein receptor (Q04912 25-304 limits assumed): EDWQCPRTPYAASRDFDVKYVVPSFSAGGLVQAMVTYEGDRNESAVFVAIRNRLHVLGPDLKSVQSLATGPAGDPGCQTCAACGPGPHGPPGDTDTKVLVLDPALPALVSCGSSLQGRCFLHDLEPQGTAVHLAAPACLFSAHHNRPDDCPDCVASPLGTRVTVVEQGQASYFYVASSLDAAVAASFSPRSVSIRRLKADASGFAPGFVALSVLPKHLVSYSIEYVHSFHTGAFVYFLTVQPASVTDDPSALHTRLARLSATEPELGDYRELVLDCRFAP
Sequence of Macrophage-stimulating protein receptor (Q04912 310-1400 limits assumed): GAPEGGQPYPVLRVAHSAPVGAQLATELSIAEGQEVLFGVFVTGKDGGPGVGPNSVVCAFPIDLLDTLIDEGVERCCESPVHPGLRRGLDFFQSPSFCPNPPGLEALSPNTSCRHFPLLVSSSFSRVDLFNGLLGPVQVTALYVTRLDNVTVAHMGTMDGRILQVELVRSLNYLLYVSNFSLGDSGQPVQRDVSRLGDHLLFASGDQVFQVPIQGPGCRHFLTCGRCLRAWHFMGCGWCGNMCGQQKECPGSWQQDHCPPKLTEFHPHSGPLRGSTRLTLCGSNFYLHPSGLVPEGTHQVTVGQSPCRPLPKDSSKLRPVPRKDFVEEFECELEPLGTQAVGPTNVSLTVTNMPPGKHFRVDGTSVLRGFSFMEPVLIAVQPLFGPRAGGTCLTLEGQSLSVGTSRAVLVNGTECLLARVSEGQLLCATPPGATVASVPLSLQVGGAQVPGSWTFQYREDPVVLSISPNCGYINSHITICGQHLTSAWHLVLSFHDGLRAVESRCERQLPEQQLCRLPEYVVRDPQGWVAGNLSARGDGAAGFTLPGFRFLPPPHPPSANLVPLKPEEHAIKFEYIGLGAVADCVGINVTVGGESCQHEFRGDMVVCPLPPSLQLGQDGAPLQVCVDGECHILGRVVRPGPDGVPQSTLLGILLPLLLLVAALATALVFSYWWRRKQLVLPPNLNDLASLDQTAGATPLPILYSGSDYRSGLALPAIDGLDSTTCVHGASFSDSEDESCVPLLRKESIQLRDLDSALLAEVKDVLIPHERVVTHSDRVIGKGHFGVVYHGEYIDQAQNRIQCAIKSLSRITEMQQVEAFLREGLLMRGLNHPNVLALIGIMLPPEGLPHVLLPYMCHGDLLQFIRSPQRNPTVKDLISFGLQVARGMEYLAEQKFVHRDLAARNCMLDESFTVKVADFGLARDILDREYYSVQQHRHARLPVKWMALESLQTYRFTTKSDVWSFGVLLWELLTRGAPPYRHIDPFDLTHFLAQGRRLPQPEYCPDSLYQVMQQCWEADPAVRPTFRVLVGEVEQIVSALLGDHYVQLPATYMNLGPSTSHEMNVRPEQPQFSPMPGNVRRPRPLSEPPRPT

`COc1cc(OC)c(/C=C/S(=O)(=O)Cc2ccc(OC)c(NCC(=O)O)c2)c(OC)c1` [RIGOSERTIB]: the Kd in [1], in experiment [2], in experiment [3], in [4], in experiment [5] and in experiment [6] was > 30 µM (inactive) each time. The Kd in experiment [7], in experiment [8], in [9] and in experiment [10] was > 30 µM (inactive) each time.
Take `CC[C@H](Nc1ncnc2[nH]cnc12)c1nc2cccc(F)c2c(=O)n1-c1ccccc1` [IDELALISIB]: the Kd in [1], in experiment [2], in [3], in experiment [4], in [5] and in experiment [6] was > 30 µM (inactive) in each case. Moreover, the Kd in experiment [7], in [8], in [9] and in experiment [10] was > 30 µM (inactive) in each case.
For the compound `C[C@@H](c1ccc2nccn2c1)n1nnc2ncc(-c3cnn(C)c3)nc21` [SAVOLITINIB], the Kd in [1], in [2], in [3], in experiment [4], in experiment [5] and in [6] was > 30 µM (inactive) throughout. In addition, the Kd in [7], in experiment [8], in [9] and in experiment [10] was > 30 µM (inactive) in each case.
On to `CN1N=C(N)c2cn([C@@H]3O[C@H](COP(=O)(O)O)[C@@H](O)[C@H]3O)c3ncnc1c23` [TRICIRIBINE PHOSPHATE], for which the Kd in [1], in [2], in experiment [3], in experiment [4], in experiment [5] and in experiment [6] was > 30 µM (inactive) in each case. Moreover, the Kd in experiment [7], in [8], in experiment [9] and in experiment [10] was > 30 µM (inactive) in each case.
Regarding `CNC(=O)CN1CCC(Oc2cc3c(Nc4cccc(Cl)c4F)ncnc3cc2OC)CC1` [SAPITINIB], the Kd in experiment [1] is > 30 µM (inactive); in [2], > 30 µM (inactive); in experiment [3] it was > 30 µM (inactive); in experiment [4], > 30 µM (inactive); in [5], > 30 µM (inactive); in experiment [6] it was 2.28 µM. Moreover, the Kd in experiment [7], in experiment [8], in experiment [9] and in experiment [10] was > 30 µM (inactive) throughout.
Regarding `O=C(c1ccc(F)c(F)c1Nc1ccc(I)cc1F)N1CC(O)([C@@H]2CCCCN2)C1` [COBIMETINIB], the Kd in experiment [1], in [2], in [3], in [4], in experiment [5] and in [6] was > 30 µM (inactive) in each case. The Kd in [7], in experiment [8], in experiment [9] and in experiment [10] was > 30 µM (inactive) in each case.
Consider `Cc1ccc(S(=O)(=O)Nc2nc3ccccc3nc2Nc2ccc3nsnc3c2)cc1`, for which the Kd in [1], in [2], in [3], in experiment [4], in experiment [5] and in [6] was > 30 µM (inactive) in each case. In addition, the Kd in experiment [7], in [8], in experiment [9] and in experiment [10] was > 30 µM (inactive) in each case.
`COc1cc2nccc(Oc3ccc(NC(=O)Nc4cc(C)on4)c(Cl)c3)c2cc1OC` [TIVOZANIB]: the Kd in experiment [1] was > 30 µM (inactive); in [2] it was > 30 µM (inactive); in experiment [3], > 30 µM (inactive); in experiment [4], > 30 µM (inactive); in experiment [6] it was 0.448 µM (active); in [7], > 30 µM (inactive). Besides, the Kd in experiment [8], in experiment [9] and in experiment [10] was > 30 µM (inactive) throughout.
For `CO[C@H]1C[C@@H]2CC[C@@H](C)[C@@](O)(O2)C(=O)C(=O)N2CCCC[C@H]2C(=O)O[C@H]([C@H](C)C[C@@H]2CC[C@@H](OCCO)[C@H](OC)C2)CC(=O)[C@H](C)/C=C(\C)[C@@H](O)[C@@H](OC)C(=O)[C@H](C)C[C@H](C)/C=C/C=C/C=C/1C` [EVEROLIMUS], the Kd in [1], in experiment [2], in experiment [3], in experiment [4], in [5] and in experiment [6] was > 30 µM (inactive) throughout. The Kd in [8], in experiment [9] and in experiment [10] was > 30 µM (inactive) each time.
For `CN(C)C(=O)c1cc2cnc(Nc3ccc(N4CCNCC4)cn3)nc2n1C1CCCC1` [RIBOCICLIB], the Kd in experiment [1], in experiment [2], in experiment [4], in experiment [5], in [6] and in experiment [7] was > 30 µM (inactive) in each case. Also, the Kd in [8], in experiment [9] and in experiment [10] was > 30 µM (inactive) each time.
